Test results published in PMC10620772, “Design, synthesis, and biological evaluation of new pyrimidine-5-carbonitrile derivatives as novel anti-cancer, dual EGFR^WT/COX-2 inhibitors with docking studies” (RSC Advances, 2023).

How the values were obtained:
[1] = tested on: NCI/ADR-RES; assay: NCI60 antitumor screening; format: cell-based, human; settings: 10 μM one-dose
[2] = tested on: U251; assay: NCI60 antitumor screening; format: cell-based, human; settings: 10 μM one-dose
[3] = tested on: A498; assay: NCI60 antitumor screening; format: cell-based, human; settings: 10 μM one-dose
[4] = tested on: NCI60 cell lines panel; assay: NCI60 antitumor screening, full panel; format: cell-based, human; settings: 10 μM one-dose, mean over NCI60
Procedure, shortened: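 Percent growth inhibition (GI%) was recorded for each of the NCI60 lines, spanning leukaemia, lung, colon, CNS, melanoma, ovarian, renal, prostate and breast cancers, after exposure to compounds at one concentration, 10 μM.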

[5] = tested on: OVCAR-8; assay: NCI60 antitumor screening; format: cell-based, human; settings: 10 μM one-dose
[6] = tested on: OVCAR-4; assay: NCI60 antitumor screening; format: cell-based, human; settings: 10 μM one-dose
[7] = tested on: NCI-H226; assay: NCI60 antitumor screening; format: cell-based, human; settings: 10 μM one-dose, Table 1
[8] = tested on: MOLT-4; assay: NCI60 antitumor screening; format: cell-based, human; settings: 10 μM one-dose
[9] = tested on: HOP-92; assay: NCI60 antitumor screening; format: cell-based, human; settings: 10 μM one-dose
[10] = tested on: RPMI-8226; assay: NCI60 antitumor screening; format: cell-based, human; settings: 10 μM one-dose
[11] = tested on: RXF 393; assay: NCI60 antitumor screening; format: cell-based, human; settings: 10 μM one-dose, Table 1
[12] = tested on: COLO 205; assay: NCI60 antitumor screening; format: cell-based, human; settings: 10 μM one-dose
[13] = tested on: NCI-H460; assay: NCI60 antitumor screening; format: cell-based, human; settings: 10 μM one-dose
[14] = tested on: HCC-2998; assay: NCI60 antitumor screening; format: cell-based, human; settings: 10 μM one-dose
[15] = tested on: SF-295; assay: NCI60 antitumor screening; format: cell-based, human; settings: 10 μM one-dose
[16] = tested on: MCF7; assay: NCI60 antitumor screening; format: cell-based, human; settings: 10 μM one-dose
[17] = tested on: SN12C; assay: NCI60 antitumor screening; format: cell-based, human; settings: 10 μM one-dose
[18] = tested on: HL-60(TB); assay: NCI60 antitumor screening; format: cell-based, human; settings: 10 μM one-dose
[19] = tested on: UO-31; assay: NCI60 antitumor screening; format: cell-based, human; settings: 10 μM one-dose
[20] = tested on: SK-MEL-28; assay: NCI60 antitumor screening; format: cell-based, human; settings: 10 μM one-dose
[21] = tested on: SW-620; assay: NCI60 antitumor screening; format: cell-based, human; settings: 10 μM one-dose
[22] = tested on: IGROV1; assay: NCI60 antitumor screening; format: cell-based, human; settings: 10 μM one-dose
[23] = tested on: SK-MEL-2; assay: NCI60 antitumor screening; format: cell-based, human; settings: 10 μM one-dose
[24] = tested on: ACHN; assay: NCI60 antitumor screening; format: cell-based, human; settings: 10 μM one-dose
[25] = tested on: CAKI-1; assay: NCI60 antitumor screening; format: cell-based, human; settings: 10 μM one-dose
[26] = tested on: LOX IMVI; assay: NCI60 antitumor screening; format: cell-based, human; settings: 10 μM one-dose
[27] = tested on: HCT-15; assay: NCI60 antitumor screening; format: cell-based, human; settings: 10 μM one-dose
[28] = tested on: MDA-MB-231/ATCC; assay: NCI60 antitumor screening; format: cell-based, human; settings: 10 μM one-dose
[29] = tested on: UACC-257; assay: NCI60 antitumor screening; format: cell-based, human; settings: 10 μM one-dose
[30] = tested on: CCRF-CEM; assay: NCI60 antitumor screening; format: cell-based, human; settings: 10 μM one-dose
[31] = tested on: 786–0; assay: NCI60 antitumor screening; format: cell-based, human; settings: 10 μM one-dose
[32] = tested on: KM12; assay: NCI60 antitumor screening; format: cell-based, human; settings: 10 μM one-dose
[33] = tested on: HCT-116; assay: NCI60 antitumor screening; format: cell-based, human; settings: 10 μM one-dose
[34] = tested on: MDA-MB-435; assay: NCI60 antitumor screening; format: cell-based, human; settings: 10 μM one-dose
[35] = tested on: DU-145; assay: NCI60 antitumor screening; format: cell-based, human; settings: 10 μM one-dose
[36] = tested on: OVCAR-3; assay: NCI60 antitumor screening; format: cell-based, human; settings: 10 μM one-dose
[37] = tested on: HOP-62; assay: NCI60 antitumor screening; format: cell-based, human; settings: 10 μM one-dose
[38] = tested on: PC-3; assay: NCI60 antitumor screening; format: cell-based, human; settings: 10 μM one-dose
[39] = tested on: NCI-H23; assay: NCI60 antitumor screening; format: cell-based, human; settings: 10 μM one-dose
[40] = tested on: A549/ATCC; assay: NCI60 antitumor screening; format: cell-based, human; settings: 10 μM one-dose
[41] = tested on: MALME-3M; assay: NCI60 antitumor screening; format: cell-based, human; settings: 10 μM one-dose
[42] = tested on: SK-OV-3; assay: NCI60 antitumor screening; format: cell-based, human; settings: 10 μM one-dose
[43] = tested on: HT29; assay: NCI60 antitumor screening; format: cell-based, human; settings: 10 μM one-dose
[44] = tested on: EKVX; assay: NCI60 antitumor screening; format: cell-based, human; settings: 10 μM one-dose
[45] = tested on: SK-MEL-5; assay: NCI60 antitumor screening; format: cell-based, human; settings: 10 μM one-dose
[46] = tested on: SNB-75; assay: NCI60 antitumor screening; format: cell-based, human; settings: 10 μM one-dose, Table 1
[47] = tested on: NCI-H322M; assay: NCI60 antitumor screening; format: cell-based, human; settings: 10 μM one-dose
[48] = tested on: HS 578T; assay: NCI60 antitumor screening; format: cell-based, human; settings: 10 μM one-dose, Table 1
[49] = tested on: UACC-62; assay: NCI60 antitumor screening; format: cell-based, human; settings: 10 μM one-dose
[50] = tested on: OVCAR-5; assay: NCI60 antitumor screening; format: cell-based, human; settings: 10 μM one-dose
[51] = tested on: SR; assay: NCI60 antitumor screening; format: cell-based, human; settings: 10 μM one-dose, Table 1
[52] = tested on: TK-10; assay: NCI60 antitumor screening; format: cell-based, human; settings: 10 μM one-dose
[53] = tested on: SF-539; assay: NCI60 antitumor screening; format: cell-based, human; settings: 10 μM one-dose, Table 1
[54] = tested on: SNB-19; assay: NCI60 antitumor screening; format: cell-based, human; settings: 10 μM one-dose
[55] = tested on: M14; assay: NCI60 antitumor screening; format: cell-based, human; settings: 10 μM one-dose
[56] = tested on: BT-549; assay: NCI60 antitumor screening; format: cell-based, human; settings: 10 μM one-dose
[57] = tested on: T-47D; assay: NCI60 antitumor screening; format: cell-based, human; settings: 10 μM one-dose
[58] = tested on: MDA-MB-468; assay: NCI60 antitumor screening; format: cell-based, human; settings: 10 μM one-dose
[59] = tested on: SF-268; assay: NCI60 antitumor screening; format: cell-based, human; settings: 10 μM one-dose
[60] = tested on: NCI-H522; assay: NCI60 antitumor screening; format: cell-based, human; settings: 10 μM one-dose
[61] = tested on: K-562; assay: NCI60 antitumor screening; format: cell-based, human; settings: 10 μM one-dose
[62] = tested on: HepG2; set-up: method as in PMID 32115728, PMID 32959865; settings: antiproliferation; cited from earlier work
[63] = tested on: MALME-3M; set-up: method as in PMID 32115728, PMID 32959865; settings: cited from earlier work
[64] = set-up: method as in PMID 26764192, PMID 22249410, PMID 21414695; settings: cited from earlier work
[65] = tested on: active caspase-3 in Colo 205 cells; assay: Caspase-3 ELISA; format: cell-based, human; settings: Colo_205, treated at IC50
From the text: Among the death proteases, the caspases family of cysteine-dependent aspartate-directed proteases is significant. There are multiple levels where caspase activation and activity are regulated.[43] Caspases are activated during apoptosis, which eventually results in cell death by deactivating a number of signals.[44] One of the crucial survival signals, EGFR, may be the target of caspase activation to ensure the completion of apoptosis.[45] Additionally, it has been reported that activating caspase-3 through COX-2 inhibition enhances apoptosis.[40] Therefore, the impact of the novel compounds on the level of caspase 3 was examined.
(1) Into the antibody coated wells add 100 μl of standard diluent buffer excepts wells wich detected to be the chromogen blank, then add 100 μl. […] (10) Decant liquid from wells then wash, (11) pipette 100 μl of chromogen substrate to all wells, The well fluid will start to become blue. (12) 30 minutes should be spent incubating at room temperature in the dark. (13) To each well, add 100 μl of stop solution. To mix, lightly tap the plate's edge. The well solution should transform from blue to yellow. (14) Read the absorbance of each well using a microtiter plate reader at 450 nm. (15) Draw the standard curve using a curve fitting program. (16) The standard curve can be used to determine the concentrations for unknown samples and controls.[55]

SMILES: N#Cc1c(-c2ccc(F)cc2)nc(SCc2ccc([N+](=O)[O-])cc2)nc1N1CCOCC1 [4c, 4-(4-Fluorophenyl)-6-morpholino-2-((4-nitrobenzyl)thio) pyrimidine-5-carbonitrile]
- GI% [1]: 58.37%
- GI% [2]: 44.68%
- GI% [3]: 35.57%
- Mean GI% [4]: 39.54%
- GI% [5]: 46.89%
- GI% [6]: 42.76%
- GI% ([6]; Table 1): — (GI value > 70%)
- GI% [7]: 76.22%
- GI% [8]: 26.34%
- GI% [9]: 63.28%
- GI% [10]: 19.73%
- GI% [11]: 90.21%
- GI% [12]: — (GI% < 10)
- GI% [13]: 22.56%
- GI% [14]: — (GI% < 10)
- GI% [15]: 58.52%
- GI% [16]: 41.49%
- GI% [17]: 25.44%
- GI% [18]: 17.28%
- GI% [19]: 49.11%
- GI% [20]: 17.90%
- GI% [21]: 19.46%
- GI% [22]: 19.45%
- GI% [23]: 12.63%
- GI% [24]: 48.98%
- GI% [25]: 64.15%
- GI% [26]: 15.29%
- GI% [27]: 27.19%
- GI% [28]: 52.93%
- GI% [29]: 45.85%
- GI% [30]: 22.80%
- GI% [31]: 69.78%
- GI% ([31]; Table 1): — (GI value > 70%)
- GI% [32]: 15.07%
- GI% [33]: 35.64%
- GI% [34]: 16.03%
- GI% [35]: 26.65%
- GI% [36]: 30.28%
- GI% [37]: 65.34%
- GI% ([37]; Table 1): — (GI value > 70%)
- GI% [38]: 40.85%
- GI% [39]: 25.17%
- GI% [40]: 36.61%
- GI% [41]: 57.24%
- GI% [42]: 55.46%
- GI% [43]: 13.41%
- GI% [44]: 60.74%
- GI% [45]: 38.14%
- GI% [46]: 92.38%
- GI% [47]: 17.30%
- GI% [48]: 84.42%
- GI% [49]: 37.29%
- GI% [50]: — (GI% < 10)
- GI% [51]: — (GI value > 70%)
- GI% [52]: 15.83%
- GI% [53]: 73.77%
- GI% [54]: 53.96%
- GI% [55]: 12.25%
- GI% [56]: 41.46%
- GI% [57]: 44.55%
- GI% [58]: 49.44%
- GI% [59]: 50.66%
- GI% [60]: 58.72%
- GI% [61]: 23.12%
- GI% ([61]; Table 1): — (GI value > 70%)

SMILES: C=CCSc1nc(Nc2ccccc2)c(C#N)c(-c2ccccc2)n1 [E]
- IC50 [62]: 3.56 µM

SMILES: CC(C)CSc1nc(Nc2ccc(C(=O)O)cc2)c(C#N)c(-c2ccccc2)n1 [F]
- GI value [63]: 152.04%

SMILES: COc1ccc(-c2nc(-c3ccc(Cl)cc3)[nH]c(=O)c2C#N)cc1 [I]
- antinociceptive activity compared to control [64]: more than 88%

SMILES: CN[C@@H]1C[C@H]2O[C@@](C)([C@@H]1OC)n1c3ccccc3c3c4c(c5c6ccccc6n2c5c31)C(=O)NC4 [Staurosporine, reference compound]
- Caspase 3 [65]: 766.2 ± 10.4 pg·mL
